Assay results as given in patent publication US20080009418A1, “Selective Inhibitors” (Alchemia LTD., priority 2004, published 2008).

Columns and labels:
Human melanocortin (MC5) = molecular target: T1, Human melanocortin (MC5) (Homo sapiens, UniProt P33032); assay: Radioligand binding, human melanocortin MC5 membranes, FlashPlate, [125I]-NDP-αMSH; conditions: compound at 10 μM; for A5 radioligand binding inhibition: human melanocortin MC5 membranes
T1 construct: purchased Perkin Elmer Biosignal
T1 sequence (P33032 whole entry): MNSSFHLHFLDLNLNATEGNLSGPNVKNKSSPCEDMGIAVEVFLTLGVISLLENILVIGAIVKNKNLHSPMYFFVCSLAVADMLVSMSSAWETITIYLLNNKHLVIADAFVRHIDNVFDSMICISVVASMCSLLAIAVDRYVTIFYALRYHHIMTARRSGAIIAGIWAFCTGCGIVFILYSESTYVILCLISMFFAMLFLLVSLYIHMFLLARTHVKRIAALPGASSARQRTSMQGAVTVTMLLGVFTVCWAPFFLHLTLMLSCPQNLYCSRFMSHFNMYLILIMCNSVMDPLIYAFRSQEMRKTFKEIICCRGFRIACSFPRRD
Method in brief: (§1)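 Cloned human receptor membranes were coated onto FlashPlate wells and incubated with radioligand and compound (added from a 0.5 mM DMSO daughter plate) for 1 hour at room temperature in the dark. Scintillation counting gave percent inhibition, with DMSO defining total and reference ligand defining non-specific binding.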

Mouse urotensin (mUR2) = molecular target: T2, Mouse urotensin (mUR2) (Mus musculus, UniProt Q8VIH9); assay: Radioligand binding, mouse urotensin mUR2 membranes, FlashPlate, [125I]-Urotensin II; conditions: compound at 10 μM; for A11 radioligand binding inhibition: mouse urotensin mUR2 membranes
T2 construct: purchased Perkin Elmer Biosignal
T2 sequence (Q8VIH9 1-385): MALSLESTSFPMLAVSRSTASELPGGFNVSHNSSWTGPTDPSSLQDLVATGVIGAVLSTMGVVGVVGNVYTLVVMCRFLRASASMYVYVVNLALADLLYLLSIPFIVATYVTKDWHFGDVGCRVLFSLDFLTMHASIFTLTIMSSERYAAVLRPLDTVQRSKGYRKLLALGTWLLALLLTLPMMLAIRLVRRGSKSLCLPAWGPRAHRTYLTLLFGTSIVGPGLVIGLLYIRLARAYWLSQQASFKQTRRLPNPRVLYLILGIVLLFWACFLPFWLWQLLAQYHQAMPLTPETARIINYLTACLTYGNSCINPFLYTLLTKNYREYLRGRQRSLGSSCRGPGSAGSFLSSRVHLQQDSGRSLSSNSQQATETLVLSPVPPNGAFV
Method in brief: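 Cloned mouse urotensin (mUR2) receptor membranes from Perkin Elmer Biosignal were immobilized in FlashPlate microplates using a proprietary coating. Each well got 19.5 μl buffer, then 0.5 μl of DMSO, reference ligand, or compound. Adding 5 μl of [125I]-Urotensin II, diluted to 5× final concentration in binding buffer, started binding. Plates were sealed with TopSeal-A and incubated 1 hour at room temperature in the dark. Wells were counted for 30 seconds each on a TopCount after a 60-second delay, and percentage inhibition was calculated.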

Human Melanocortin (MC3) = molecular target: T3, Human Melanocortin (MC3) (Homo sapiens, UniProt P41968); assay: Radioligand binding, human melanocortin MC3 membranes, FlashPlate, [125I]-NDP-αMSH; conditions: compound at 10 μM; for A3 radioligand binding inhibition: human melanocortin MC3 membranes
T3 construct: purchased Perkin Elmer Biosignal
T3 sequence (P41968 whole entry): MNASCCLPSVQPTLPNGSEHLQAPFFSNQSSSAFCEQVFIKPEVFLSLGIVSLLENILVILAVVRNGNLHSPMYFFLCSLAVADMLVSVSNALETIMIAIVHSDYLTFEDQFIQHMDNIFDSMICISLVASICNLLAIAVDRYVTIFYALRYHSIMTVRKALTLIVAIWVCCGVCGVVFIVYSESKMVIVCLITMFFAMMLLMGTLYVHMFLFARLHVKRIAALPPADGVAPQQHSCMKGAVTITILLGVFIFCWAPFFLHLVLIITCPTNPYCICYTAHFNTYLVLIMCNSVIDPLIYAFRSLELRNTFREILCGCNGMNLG
Method in brief: as §1

Human μ-opioid (MOP) = molecular target: T4, Human μ-opioid (MOP) (Homo sapiens, UniProt P35372); assay: Radioligand binding, human μ-opioid (MOP) membranes, FlashPlate, [3H]-Naloxone; conditions: compound at 10 μM; for A7 radioligand binding inhibition: human μ-opioid (MOP) membranes
T4 construct: purchased Perkin Elmer Biosignal
T4 sequence (P35372 whole entry): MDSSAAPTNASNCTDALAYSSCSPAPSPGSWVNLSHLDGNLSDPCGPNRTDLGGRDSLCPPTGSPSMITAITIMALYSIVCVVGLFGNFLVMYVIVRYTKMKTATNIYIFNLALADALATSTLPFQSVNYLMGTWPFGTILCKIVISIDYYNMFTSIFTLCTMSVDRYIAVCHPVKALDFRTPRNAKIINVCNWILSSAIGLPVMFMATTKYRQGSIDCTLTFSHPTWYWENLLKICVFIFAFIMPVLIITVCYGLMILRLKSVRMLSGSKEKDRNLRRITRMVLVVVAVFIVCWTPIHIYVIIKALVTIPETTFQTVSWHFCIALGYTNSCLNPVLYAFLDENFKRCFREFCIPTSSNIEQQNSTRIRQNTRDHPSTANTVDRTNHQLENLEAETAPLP
Method in brief: as §1

[1] = molecular target: T5, Human melanin-concentrating hormone (MCH1) (Homo sapiens, UniProt Q99705); assay: Radioligand binding, human melanin-concentrating hormone MCH1 membranes, FlashPlate, [125I]-S36057; conditions: compound at 10 μM; for A6 radioligand binding inhibition: human MCH1 membranes
T5 construct: purchased Perkin Elmer Biosignal
T5 sequence (Q99705 whole entry): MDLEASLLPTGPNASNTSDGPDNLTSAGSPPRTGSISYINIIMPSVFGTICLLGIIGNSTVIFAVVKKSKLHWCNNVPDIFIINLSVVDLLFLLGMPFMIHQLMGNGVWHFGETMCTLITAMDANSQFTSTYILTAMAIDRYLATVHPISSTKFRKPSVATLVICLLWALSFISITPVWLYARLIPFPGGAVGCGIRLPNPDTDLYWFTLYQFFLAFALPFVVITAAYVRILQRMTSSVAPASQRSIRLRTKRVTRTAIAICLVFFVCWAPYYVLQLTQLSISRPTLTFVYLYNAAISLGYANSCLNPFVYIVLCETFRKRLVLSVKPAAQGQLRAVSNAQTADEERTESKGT
Method in brief: as §1

Human neurokinin (NK1) = molecular target: T6, Human neurokinin (NK1) (Homo sapiens, UniProt P25103); assay: Radioligand binding, human neurokinin NK1 membranes, filtration, [125I]-Substance P; conditions: compound at 10 μM; for A8 radioligand binding inhibition: human neurokinin NK1 membranes
T6 construct: purchased Perkin Elmer Biosignal
T6 sequence (P25103 whole entry): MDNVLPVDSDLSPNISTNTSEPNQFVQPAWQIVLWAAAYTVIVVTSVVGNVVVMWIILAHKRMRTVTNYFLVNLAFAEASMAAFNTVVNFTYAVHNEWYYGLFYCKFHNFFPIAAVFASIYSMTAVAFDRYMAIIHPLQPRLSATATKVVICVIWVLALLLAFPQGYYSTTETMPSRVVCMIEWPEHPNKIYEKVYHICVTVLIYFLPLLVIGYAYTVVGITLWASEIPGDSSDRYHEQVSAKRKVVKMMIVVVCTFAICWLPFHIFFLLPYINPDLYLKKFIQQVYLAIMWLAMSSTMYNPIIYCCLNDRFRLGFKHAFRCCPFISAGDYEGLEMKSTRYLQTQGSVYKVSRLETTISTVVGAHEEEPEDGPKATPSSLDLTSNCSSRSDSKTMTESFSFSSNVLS
Method in brief: (§2)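 Membranes from cloned human receptors were incubated with compound and radioligand for 1 hour at room temperature. Bound ligand was collected on 0.3% PEI-soaked filters, washed with cold 50 mM Tris-HCl pH 7.4, and counted by scintillation. Percent inhibition was computed against DMSO totals and reference-ligand nonspecific wells.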

Human δ-opioid (DOP) = molecular target: T7, Human δ-opioid (DOP) (Homo sapiens, UniProt P41143); assay: Radioligand binding, human δ-opioid (DOP) membranes, FlashPlate, [3H]-Bremazocine; conditions: compound at 10 μM; for A1 radioligand binding inhibition: human δ-opioid (DOP) membranes
T7 construct: purchased Perkin Elmer Biosignal
T7 sequence (P41143 whole entry): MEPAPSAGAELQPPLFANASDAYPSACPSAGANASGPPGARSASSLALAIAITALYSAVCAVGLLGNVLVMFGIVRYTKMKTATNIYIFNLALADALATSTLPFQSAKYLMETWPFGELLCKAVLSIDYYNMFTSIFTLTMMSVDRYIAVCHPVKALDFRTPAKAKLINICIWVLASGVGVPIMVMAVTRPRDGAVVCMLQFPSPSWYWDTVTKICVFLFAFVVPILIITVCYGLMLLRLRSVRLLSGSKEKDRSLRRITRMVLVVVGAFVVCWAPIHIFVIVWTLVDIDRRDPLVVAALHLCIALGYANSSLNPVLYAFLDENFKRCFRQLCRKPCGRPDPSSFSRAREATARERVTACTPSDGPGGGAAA
Method in brief: as §1

Human opioid (ORL1) = molecular target: T8, Human opioid (ORL1) (Homo sapiens, UniProt P41146); assay: Radioligand binding, human opioid ORL1 membranes, FlashPlate, [125I]-Nociceptin; conditions: compound at 10 μM; for A10 radioligand binding inhibition: human ORL1 membranes
T8 construct: purchased Perkin Elmer Biosignal
T8 sequence (P41146 whole entry): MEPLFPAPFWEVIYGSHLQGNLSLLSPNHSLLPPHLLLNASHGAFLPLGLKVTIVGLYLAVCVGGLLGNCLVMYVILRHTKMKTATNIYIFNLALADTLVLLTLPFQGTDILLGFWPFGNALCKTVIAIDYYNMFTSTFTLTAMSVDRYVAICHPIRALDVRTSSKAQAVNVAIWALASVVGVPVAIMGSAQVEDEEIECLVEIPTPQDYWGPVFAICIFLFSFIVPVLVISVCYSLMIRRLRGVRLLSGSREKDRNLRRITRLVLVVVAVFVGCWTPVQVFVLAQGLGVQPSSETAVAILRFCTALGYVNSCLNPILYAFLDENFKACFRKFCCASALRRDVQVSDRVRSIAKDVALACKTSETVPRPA
Method in brief: as §1

[2] = molecular target: T9, Human neuropeptide Y (NPY-Y1) (Homo sapiens, UniProt P25929); assay: Radioligand binding, human neuropeptide Y NPY-Y1 membranes, FlashPlate, [125I]-PYY; conditions: compound at 10 μM; for A9 radioligand binding inhibition: human NPY-Y1 membranes
T9 construct: purchased Perkin Elmer Biosignal
T9 sequence (P25929 1-384): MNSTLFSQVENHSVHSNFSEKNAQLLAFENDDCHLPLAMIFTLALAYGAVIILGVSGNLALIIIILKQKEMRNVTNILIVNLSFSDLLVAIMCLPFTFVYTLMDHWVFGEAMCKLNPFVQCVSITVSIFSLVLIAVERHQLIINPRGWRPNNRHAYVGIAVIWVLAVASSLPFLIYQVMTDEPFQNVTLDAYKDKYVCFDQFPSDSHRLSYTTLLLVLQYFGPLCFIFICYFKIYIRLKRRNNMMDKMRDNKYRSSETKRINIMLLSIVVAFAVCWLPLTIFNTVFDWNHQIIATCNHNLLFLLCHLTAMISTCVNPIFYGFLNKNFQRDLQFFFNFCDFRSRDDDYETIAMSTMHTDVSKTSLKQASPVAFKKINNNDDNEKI
Method in brief: as §1

Human Melanocortin (MC4) = molecular target: T10, Human Melanocortin (MC4) (Homo sapiens, UniProt P32245); assay: Radioligand binding, human melanocortin MC4 membranes, FlashPlate, [125I]-NDP-αMSH; conditions: compound at 10 μM; for A4 radioligand binding inhibition: human melanocortin MC4 membranes
T10 construct: purchased Perkin Elmer Biosignal
T10 sequence (P32245 whole entry): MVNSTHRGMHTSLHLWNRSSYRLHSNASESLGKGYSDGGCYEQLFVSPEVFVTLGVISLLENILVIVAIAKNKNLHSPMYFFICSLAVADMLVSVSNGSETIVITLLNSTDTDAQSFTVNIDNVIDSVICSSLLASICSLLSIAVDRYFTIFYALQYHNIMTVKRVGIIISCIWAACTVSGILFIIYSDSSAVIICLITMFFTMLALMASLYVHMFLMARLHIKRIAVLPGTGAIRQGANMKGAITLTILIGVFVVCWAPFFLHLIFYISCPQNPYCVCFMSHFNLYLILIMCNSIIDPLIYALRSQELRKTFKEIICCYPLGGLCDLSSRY
Method in brief: as §1

Human κ-Opioid (KOP) = molecular target: T11, Human κ-Opioid (KOP) (Homo sapiens, UniProt P41145); assay: Radioligand binding, human κ-opioid (KOP) membranes, filtration, [3H]-Diprenorphine; conditions: compound at 10 μM; for A2 radioligand binding inhibition: human κ-opioid (KOP) membranes
T11 construct: purchased Perkin Elmer Biosignal
T11 sequence (P41145 whole entry): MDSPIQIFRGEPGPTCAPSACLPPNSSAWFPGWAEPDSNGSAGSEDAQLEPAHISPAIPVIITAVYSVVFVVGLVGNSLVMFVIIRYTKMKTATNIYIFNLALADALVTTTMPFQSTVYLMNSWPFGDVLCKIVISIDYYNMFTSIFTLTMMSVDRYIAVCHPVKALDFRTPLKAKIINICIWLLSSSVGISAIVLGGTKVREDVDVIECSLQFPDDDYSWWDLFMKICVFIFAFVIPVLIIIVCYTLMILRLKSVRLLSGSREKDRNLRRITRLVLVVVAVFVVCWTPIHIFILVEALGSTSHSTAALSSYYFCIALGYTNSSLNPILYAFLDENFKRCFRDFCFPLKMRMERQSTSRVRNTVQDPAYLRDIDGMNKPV
Method in brief: as §2

| Compound | A5 radioligand binding inhibition (Human melanocortin (MC5)) | A11 radioligand binding inhibition (Mouse urotensin (mUR2)) | A3 radioligand binding inhibition (Human Melanocortin (MC3)) | A7 radioligand binding inhibition (Human μ-opioid (MOP)) | A6 radioligand binding inhibition [1] | A8 radioligand binding inhibition (Human neurokinin (NK1)) | A1 radioligand binding inhibition (Human δ-opioid (DOP)) | A10 radioligand binding inhibition (Human opioid (ORL1)) | A9 radioligand binding inhibition [2] | A4 radioligand binding inhibition (Human Melanocortin (MC4)) | A2 radioligand binding inhibition (Human κ-Opioid (KOP)) | further results |
| --- | --- | --- | --- | --- | --- | --- | --- | --- | --- | --- | --- | --- |
| COC[C@H]1OC(OCc2ccc(Cl)cc2)[C@H](NC(=O)CCCN)[C@@H](OCc2ccccc2)[C@@H]1O (stereo partly drawn) [compound 35] | − (“−” indicates less than 50% inhibition at 10 μM) | − (“−” indicates less than 50% inhibition at 10 μM) | − (“−” indicates less than 50% inhibition at 10 μM) | − (“−” indicates less than 50% inhibition at 10 μM) | − (“−” indicates less than 50% inhibition at 10 μM) | + (“+” indicates greater than 50% inhibition at 10 μM) | − (“−” indicates less than 50% inhibition at 10 μM) | − (“−” indicates less than 50% inhibition at 10 μM) | − (“−” indicates less than 50% inhibition at 10 μM) | − (“−” indicates less than 50% inhibition at 10 μM) | − (“−” indicates less than 50% inhibition at 10 μM) | – |
| COC[C@H]1OC(OCc2ccc(-c3ccccc3)cc2)[C@H](NC(=O)CCCNC(=N)N)[C@@H](OCc2cccc(O)c2)[C@@H]1O (stereo partly drawn) [compound 132] | – | – | – | – | – | – | – | – | – | – | – | A5 radioligand binding, percentage inhibition (Human melanocortin (MC5); [125I]-NDP-αMSH): − (“−” indicates less than 50% inhibition at 10 μM); A11 radioligand binding, percentage inhibition (Mouse urotensin (mUR2); [125I]-Urotensin II): − (“−” indicates less than 50% inhibition at 10 μM); A3 radioligand binding, percentage inhibition (Human Melanocortin (MC3); [125I]-NDP-αMSH): − (“−” indicates less than 50% inhibition at 10 μM); A7 radioligand binding, percentage inhibition (Human μ-opioid (MOP); [3H]-Naloxone): + (“+” indicates greater than 50% inhibition at 10 μM); A6 radioligand binding, percentage inhibition ([1]; [125I]-S36057): − (“−” indicates less than 50% inhibition at 10 μM); A8 radioligand binding, percentage inhibition (Human neurokinin (NK1); [125I]-Substance P): − (“−” indicates less than 50% inhibition at 10 μM); A1 radioligand binding, percentage inhibition (Human δ-opioid (DOP); [3H]-Bremazocine): − (“−” indicates less than 50% inhibition at 10 μM); A10 radioligand binding, percentage inhibition (Human opioid (ORL1); [125I]-Nociceptin): − (“−” indicates less than 50% inhibition at 10 μM); A9 radioligand binding, percentage inhibition ([2]; [125I]-PYY): − (“−” indicates less than 50% inhibition at 10 μM); A4 radioligand binding, percentage inhibition (Human Melanocortin (MC4); [125I]-NDP-αMSH): − (“−” indicates less than 50% inhibition at 10 μM); A2 radioligand binding, percentage inhibition (Human κ-Opioid (KOP); [3H]-Diprenorphine): + (“+” indicates greater than 50% inhibition at 10 μM) |
| CO[C@H]1[C@H](O)[C@@H](COCc2ccc(Cl)cc2)OC(OCc2ccc(-c3ccccc3)cc2)[C@@H]1NC(=O)CCNC(=N)N (stereo partly drawn) [compound 63] | + (“+” indicates greater than 50% inhibition at 10 μM) | − (“−” indicates less than 50% inhibition at 10 μM) | + (“+” indicates greater than 50% inhibition at 10 μM) | + (“+” indicates greater than 50% inhibition at 10 μM) | + (“+” indicates greater than 50% inhibition at 10 μM) | + (“+” indicates greater than 50% inhibition at 10 μM) | − (“−” indicates less than 50% inhibition at 10 μM) | + (“+” indicates greater than 50% inhibition at 10 μM) | + (“+” indicates greater than 50% inhibition at 10 μM) | + (“+” indicates greater than 50% inhibition at 10 μM) | + (“+” indicates greater than 50% inhibition at 10 μM) | – |
